Key:
[1] = Stability with different solvents (initial tests, HPLC-DAD); assay type: physicochemical; conditions: room temperature
Description: The stability of (E)-3-tosylacrylonitrile in different solvents, concentrations and temperatures was studied. The initial tests were conducted at room temperature and the tested solvents were i) propylene carbonate; ii) ethanol; iii) dimethylsulfoxide (DMSO); iv) combination of 35% ethanol-65% propylene glycol; v) water at pH 4; and water at pH 8. The amount of (E)-3-tosylacrylonitrile was analysed with HPLC-DAD. For sample pre-treatment, an approximately 1.45 mg/ml solution of (E)-3-tosylacrylonitrile was prepared in acetonitrile and the solution was analysed by HPLC. Quantification was performed using external (ESTD) calibration with authentic standards. Results from the initial tests with propylene carbonate, ethanol, dimethylsulfoxide, 35% ethanol-65% propylene glycol, and water are presented in FIG. 1.

[2] = Long-time stability in propylene carbonate (second round of tests, HPLC-DAD); assay type: physicochemical
Description: The amount of (E)-3-tosylacrylonitrile was analysed with HPLC-DAD. For sample pre-treatment, an approximately 1.45 mg/ml solution of (E)-3-tosylacrylonitrile was prepared in acetonitrile and the solution was analysed by HPLC. Quantification was performed using external (ESTD) calibration with authentic standards. After the initial tests, a second round of tests were conducted with propylene carbonate. The stability of (E)-3-tosylacrylonitrile in propylene carbonate was tested at 10 mg/ml and 50 mg/ml concentrations and at different temperatures. The effect of light on the stability was also examined (FIGS. 2 and 3).

For `Cc1ccc(S(=O)(=O)/C=C/C#N)cc1` [(E)-3-tosylacrylonitrile], the “dissolving in propylene carbonate” value ([1]; propylene carbonate) was “dissolved immediately”, the “stability in propylene carbonate (short-term)” value ([1]; propylene carbonate) was “stable for at least one month” and the “dissolving in the tested solvent” value ([1]; most tested solvents (ethanol, DMSO, 35% ethanol-65% propylene glycol, water pH 4, water pH 8)) was “did not dissolve thoroughly in the tested solvent or dissolving continued for several days”. For the same compound, the “final concentration of (E)-3-tosylacrylonitrile after 6 months” value ([2]; 10 mg/ml and 50 mg/ml, all tested conditions (different temperatures, light), 6 months) was “above 90%”, the “degradation in propylene carbonate” value ([2]; 10 and 50 mg/ml) was “slow” and the “stability in propylene carbonate” value ([2]; 10 and 50 mg/ml, different temperatures, light) was “good even in harsh conditions”.
